From a melting point compilation (Tetko et al.)

Row | Structure (SMILES) | melting point [°C]
1 | CCOC(=O)CCCOc1ccccc1NC(=O)c1ccc2c(c1)CC1(CCC(c3ccc(C(C)(C)C)cc3)CC1)C2 (stereo unspecified) | 112
2 | O=C(O)c1ccc(Br)nc1 | 184
3 | C/C(=N\c1ccccc1C)c1c(O)c2ccccc2n(-c2ccccc2)c1=O | 140
4 | CC(C)(C)C1=CC(=NO)C=C(C(C)(C)C)C1=O | 219
5 | O=C(O)CCc1ccc(C(=O)O)cc1 | 290
6 | CCOc1ccc2nc3cc(N)ccc3c(N)c2c1 | 226
7 | Oc1ccnc(Cl)c1 | 171
8 | Nc1ccc(C=CC(=O)c2ccccc2)cc1 | 151
9 | CC1(C)C=[N+]([O-])C(C)(C)C=[N+]1[O-] | 298 to 300
10 | Cc1c(Br)c(Br)c(Br)c(Br)c1Br | 288
11 | CCCc1ccccc1/C=N/Nc1ccc([N+](=O)[O-])cc1[N+](=O)[O-] | 228
12 | O=CNC(O)C(Cl)(Cl)Cl (stereo unspecified) | 120
13 | O=C(O)c1ccc2ccccc2c1O | 199 to 205
14 | Nc1cc(Cl)cnc1Br | 141 to 143
15 | CCOc1ccc(-c2nnc3n2NC(c2ccc(O)c(OC)c2)S3)cc1 (stereo unspecified) | 133
16 | COC(=O)c1c(C)[nH]c(C)c1C=O | 160
17 | N=c1oc2ccccc2cc1-c1nc2ccccc2s1 | 186
18 | CC(=O)Oc1ccccc1C(=O)Oc1ccccc1 | 96
19 | O=[N+]([O-])c1ccc(C(Br)C(Br)c2cccc3ccccc23)c([N+](=O)[O-])c1 (stereo unspecified) | 161
20 | COC(=O)Cc1ccc(O)cc1 | 57
21 | CC(C)CC(C)(O)C#CC(C)(O)CC(C)C (stereo unspecified) | 42 to 44
22 | O=[N+]([O-])C(Br)C(Br)c1cccc(C(Br)C(Br)[N+](=O)[O-])c1 (stereo unspecified) | 147
23 | COC(=O)[C@@H](NC(=O)OCc1ccccc1)[C@@H](C)O | 92 to 94

Row | Structure (SMILES) | melting point [°C]
24 | CC(Oc1ccc(Cl)cc1Cl)C(=O)O (stereo unspecified) | 122
25 | COS(=O)(=O)Cl | -70
26 | COc1c(F)cc(N)cc1F | 79
27 | OCC1OC(Oc2ccc(O)cc2)C(O)C(O)C1O (stereo unspecified) | 200
28 | CC12CCC(CC1=NO)C2(C)C (stereo unspecified) | 118
29 | O=C(C=Cc1ccsc1)c1ccccc1 | 88
30 | CCOC(=O)C(C#N)c1cc(Cl)c([N+](=O)[O-])cc1[N+](=O)[O-] (stereo unspecified) | 109
31 | CCSc1nnc(CCn2c(C)nc3ccccc32)n1-c1ccccc1 | 110
32 | CCOC(=O)NNC(=O)Nc1ccccc1 | 144 to 145
33 | Cc1cc(Br)c(N)cc1OCc1ccccc1 | 137 to 138
34 | O=C(O)C[C@H](NC(=O)OCC1c2ccccc2-c2ccccc21)c1cccc([N+](=O)[O-])c1 | 140
35 | COC(=O)c1c(C)oc(C)c1S(=O)(=O)Cl | 70 to 71
36 | Cc1cc(=O)[nH]c2c(/N=N/c3ccc(O)cc3)c(N)nn12 | 285
37 | c1ccc(N2CCNCC2)cc1 | 18.8
38 | Cc1nc2ccc(I)cc2s1 | 134 to 137
39 | CN(C)c1ccc(C2C3=C(CC(C)(C)CC3=O)Nc3c2ccc2ccccc32)cc1 (stereo unspecified) | 271
40 | N#Cc1cc(Cl)ccc1O | 165 to 168
41 | NC(=O)c1ncccc1O | 195
42 | CC(C)OC(=O)c1cc(C(=O)OC(C)C)cc([N+](=O)[O-])c1 | 65
43 | COC(=O)c1sc2c(c1N)CSc1ccc(Cl)cc1-2 | 120
44 | CC1CC(OC(=O)C(O)c2ccccc2)CC(C)(C)C1 (stereo unspecified) | 56
45 | Cn1ncc(Br)c1N | 104 to 105
46 | NC(=S)Nc1ccc(C(F)(F)F)cc1 | 144 to 145

Row | Structure (SMILES) | melting point [°C]
47 | Clc1nsc2ccccc12 | 39
48 | O=c1ccc2cc(Cl)ccc2o1 | 165
49 | COc1ccc(C(=O)O)cc1I | 240
50 | Fc1ccc(Oc2ccnc3cc(Cl)cc(Cl)c23)cc1 | 107
51 | COc1cc2c(cc1O)CCNC2 | 222
52 | CCOC(=O)C1=NN(c2ccc(Cl)cc2Cl)C(C)(C(=O)OCC)C1 (stereo unspecified) | 51
53 | Cc1c(C=NO)c(=O)n(-c2ccccc2)n1C | 216 to 219
54 | COC(=O)c1cnc(SCC(=O)NC(=O)Nc2ccc(Cl)cc2)n1C | 208 to 209
55 | FC(F)(F)c1cccnc1S | 180 to 182
56 | COC1(OC)C2C=C3OC(=O)C1C3(C)O2 (stereo unspecified) | 199 to 201
57 | CCNCC(=O)O | 182 to 186
58 | CCC1(C2=CCCCCC2)C(=O)NC(=O)NC1=O | 174
59 | COC(=O)c1scc(S(=O)(=O)Cc2ccco2)c1N | 152 to 154
60 | CC(C)OC(=O)C(C)(C)Oc1ccc(C(=O)c2ccc(Cl)cc2)cc1 | 80.5
61 | CCOC(=O)C(C#N)=C(N)c1cc2ccccc2oc1=O | 247 to 249
62 | Nc1cccc(-n2cccc2)c1 | 43 to 44
63 | NC1CONC1=O (stereo unspecified) | 156
64 | O=[N+]([O-])c1ccc2[nH]ccc2c1 | 205 to 207
65 | CC(C)(C)OC(=O)N1CCCC(O)C1 (stereo unspecified) | 68
66 | CC(C)CC1=CC(=Cc2ccc(-c3ccc([N+](=O)[O-])cc3)o2)C(=O)O1 | 162 to 163
67 | O=Cc1cccc2c(Br)ccc([N+](=O)[O-])c12 | 135
68 | CCCc1ccc(OCC(=O)N2CCN(C(=O)COc3ccc(CCC)cc3OC)CC2)c(OC)c1 | 128
69 | O=C(Nc1cccc(Br)c1)c1cncc(Cl)n1 | 100

Row | Structure (SMILES) | melting point [°C]
70 | CC(=O)Oc1ccccc1-c1ccccc1 | 65
71 | Nc1cccc(Cn2ccnc2)c1 | 72 to 74
72 | Cn1cnc2c(N)ncnc21 | 300 to 302
73 | COc1ccc(-n2c(SC)nc3ccccc3c2=O)cc1 | 154 to 156
74 | CCCCc1ccc(NC(C)=O)cc1 | 107 to 109
75 | Cc1c(C=O)cnn1-c1ccccc1 | 76 to 77
76 | COc1ccc(-c2coc3cc(O)ccc3c2=O)cc1 | 256
77 | CCOC(=O)C1=C(C)NC(=O)NC1c1ccccc1C(F)(F)F (stereo unspecified) | 203
78 | Nc1ccc(C(=O)O)c(Cl)c1 | 210 to 215
79 | O=[N+]([O-])c1cccc(-c2nnc3n2NC(/C=C/c2ccccc2)S3)c1 (stereo unspecified) | 190 to 192
80 | CCCC(C)c1ccccc1 (stereo unspecified) | -70
81 | ClCc1csc(-c2ccc(Cl)cc2)n1 | 78 to 79
82 | OC1OC(c2ccccc2)Cc2ccccc21 (stereo unspecified) | 100 to 103
83 | N#CC=P(c1ccccc1)(c1ccccc1)c1ccccc1 | 189 to 198
84 | COc1cccc(CCC(=O)O)c1 | 45
85 | CCOC(=O)c1ccccc1C(=C1C=C(Br)C(=O)C(Br)=C1)c1cc(Br)c(O)c(Br)c1 | 208 to 211
86 | O=C(O)c1ccccc1-c1cccnc1 | 188
87 | NC(=O)c1sc2nnccc2c1N | 310 to 320
88 | O=C(O)CCCC(=O)c1cccs1 | 96
89 | COc1ccc(C(N)=NO)cc1 | 119 to 121
90 | Cc1ccc([N+](=O)[O-])c(I)c1 | 18 to 20
91 | CC(=O)N1N=C2c3ccccc3CCC2C1c1ccc(Cl)cc1 (stereo unspecified) | 182 to 183
